Laboratory results: PubChem BioAssay AID1963846 (Molecular Pharmacology Branch, DTP, NCI, 2024)

Test system: 454973-116-R2-J3-PDC complex spheroid viability
Assay: Anticancer human tumor 454973-116-R2-J3-PDC patient-derived pancreatic carcinoma cell line growth inhibition [POLQ]
Conditions: for IC50: curve of first compound; for viability, T/C: stronger effect = lower value
How it was run: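 Three-cell-type spheroids modelling solid tumor plus stroma served as the readout system; POL inhibitors were tested individually and in combination, concentration ranges set by clinical Cmax where known.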

[1] = second compound 0.0316 µM, first compound 0.0316 µM
[2] = second compound 0.0316 µM, first compound 0.1 µM
[3] = second compound 0.0316 µM, first compound 0.316 µM
[4] = second compound 0.0316 µM, first compound 1 µM
[5] = second compound 0.1 µM, first compound 0.0316 µM
[6] = second compound 0.1 µM, first compound 0.1 µM
[7] = second compound 0.1 µM, first compound 0.316 µM
[8] = second compound 0.1 µM, first compound 1 µM
[9] = second compound 0.316 µM, first compound 0.0316 µM
[10] = second compound 0.316 µM, first compound 0.1 µM
[11] = second compound 0.316 µM, first compound 0.316 µM
[12] = second compound 0.316 µM, first compound 1 µM
[13] = second compound 1 µM, first compound 0.0316 µM
[14] = second compound 1 µM, first compound 0.1 µM
[15] = second compound 1 µM, first compound 0.316 µM
[16] = second compound 1 µM, first compound 1 µM
[17] = second compound 3.16 µM, first compound 0.0316 µM
[18] = second compound 3.16 µM, first compound 0.1 µM
[19] = second compound 3.16 µM, first compound 0.316 µM
[20] = second compound 3.16 µM, first compound 1 µM
[21] = second compound 10 µM, first compound 0.0316 µM
[22] = second compound 10 µM, first compound 0.1 µM
[23] = second compound 10 µM, first compound 0.316 µM
[24] = second compound 10 µM, first compound 1 µM
[25] = second compound 0.0316 µM, first compound 3.16 µM
[26] = second compound 0.0316 µM, first compound 10 µM
[27] = second compound 0.1 µM, first compound 3.16 µM
[28] = second compound 0.1 µM, first compound 10 µM
[29] = second compound 0.316 µM, first compound 3.16 µM
[30] = second compound 0.316 µM, first compound 10 µM
[31] = second compound 1 µM, first compound 3.16 µM
[32] = second compound 1 µM, first compound 10 µM
[33] = second compound 3.16 µM, first compound 3.16 µM
[34] = second compound 3.16 µM, first compound 10 µM
[35] = second compound 10 µM, first compound 3.16 µM
[36] = second compound 10 µM, first compound 10 µM
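Also: spheroids exposed to drugs for seven days before measurement.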
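For viability, T/C in this document: percent viability relative to DMSO vehicle control wells taken as 100%.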

CCc1c2c(nc3ccc(O)cc13)-c1cc3c(c(=O)n1C2)COC(=O)[C@]3(O)CC + Cc1cccc(N(C)C(=O)C2C(O)CCN2c2nc(C)cc(C(F)(F)F)c2C#N)c1
IC50 (second compound 0.0316 µM): < 3.16 nM | IC50 (second compound 0.1 µM): < 3.16 nM | IC50 (second compound 0.316 µM): < 3.16 nM | IC50 (second compound 1 µM): < 3.16 nM | IC50 (second compound 3.16 µM): < 3.16 nM | IC50 (second compound 10 µM): < 3.16 nM | viability, T/C (second compound 0.0316 µM, first compound 0.00316 µM): 32.6% | viability, T/C (second compound 0.0316 µM, first compound 0.01 µM): 17.2% | viability, T/C [1]: 13.2% | viability, T/C [2]: 6.84% | viability, T/C [3]: 2.58% | viability, T/C [4]: 1.69% | viability, T/C (second compound 0.1 µM, first compound 0.00316 µM): 31.1% | viability, T/C (second compound 0.1 µM, first compound 0.01 µM): 19.1% | viability, T/C [5]: 13.6% | viability, T/C [6]: 5.52% | viability, T/C [7]: 2.13% | viability, T/C [8]: 1.7% | viability, T/C (second compound 0.316 µM, first compound 0.00316 µM): 28.8% | viability, T/C (second compound 0.316 µM, first compound 0.01 µM): 17.2% | viability, T/C [9]: 15% | viability, T/C [10]: 5.17% | viability, T/C [11]: 1.9% | viability, T/C [12]: 1.61% | viability, T/C (second compound 1 µM, first compound 0.00316 µM): 35.7% | viability, T/C (second compound 1 µM, first compound 0.01 µM): 18.7% | viability, T/C [13]: 11.5% | viability, T/C [14]: 5.4% | viability, T/C [15]: 2.24% | viability, T/C [16]: 1.72% | viability, T/C (second compound 3.16 µM, first compound 0.00316 µM): 33.6% | viability, T/C (second compound 3.16 µM, first compound 0.01 µM): 21.9% | viability, T/C [17]: 13.1% | viability, T/C [18]: 5.13% | viability, T/C [19]: 2.23% | viability, T/C [20]: 1.68% | viability, T/C (second compound 10 µM, first compound 0.00316 µM): 26.3% | viability, T/C (second compound 10 µM, first compound 0.01 µM): 21.5% | viability, T/C [21]: 12.8% | viability, T/C [22]: 4.56% | viability, T/C [23]: 1.72% | viability, T/C [24]: 4.16%

CC1COCCN1c1cc(-c2ccnn2C)c2ccnc(-c3ccn[nH]3)c2n1 (stereo unspecified) + Nc1ccc(C#CCN(C(=O)Cc2ncc(C(F)(F)F)cc2C(F)(F)F)c2ccc(F)cc2)nn1
IC50 (second compound 0.0316 µM): 126 nM | IC50 (second compound 0.1 µM): 117 nM | IC50 (second compound 0.316 µM): 119 nM | IC50 (second compound 1 µM): 109 nM | IC50 (second compound 3.16 µM): 119 nM | IC50 (second compound 10 µM): 90 nM | viability, T/C [1]: 83.6% | viability, T/C [2]: 57.6% | viability, T/C [3]: 19.8% | viability, T/C [4]: 11.3% | viability, T/C [25]: 14% | viability, T/C [26]: 14.1% | viability, T/C [5]: 80.3% | viability, T/C [6]: 54.6% | viability, T/C [7]: 20.1% | viability, T/C [8]: 13.5% | viability, T/C [27]: 11.2% | viability, T/C [28]: 14.6% | viability, T/C [9]: 91% | viability, T/C [10]: 55.6% | viability, T/C [11]: 19.1% | viability, T/C [12]: 9.76% | viability, T/C [29]: 12.6% | viability, T/C [30]: 14.6% | viability, T/C [13]: 90.2% | viability, T/C [14]: 52.7% | viability, T/C [15]: 16.8% | viability, T/C [16]: 11.3% | viability, T/C [31]: 13.6% | viability, T/C [32]: 14.5% | viability, T/C [17]: 88.7% | viability, T/C [18]: 55.6% | viability, T/C [19]: 18.2% | viability, T/C [20]: 11.3% | viability, T/C [33]: 9.64% | viability, T/C [34]: 11.8% | viability, T/C [21]: 92.5% | viability, T/C [22]: 45.7% | viability, T/C [23]: 17.5% | viability, T/C [24]: 10.5% | viability, T/C [35]: 10.2% | viability, T/C [36]: 13.4%

CCc1cc2c(N3CCc4c(cc(Cn5ccnc5)cc4-c4cn(C)nc4C(F)(F)F)C3=O)ccnc2c(OC)n1 + Nc1ccc(C#CCN(C(=O)Cc2ncc(C(F)(F)F)cc2C(F)(F)F)c2ccc(F)cc2)nn1
IC50 (second compound 0.0316 µM): > 10000 nM | IC50 (second compound 0.1 µM): > 10000 nM | IC50 (second compound 0.316 µM): > 10000 nM | IC50 (second compound 1 µM): > 10000 nM | IC50 (second compound 3.16 µM): > 10000 nM | IC50 (second compound 10 µM): > 10000 nM | viability, T/C [1]: 119% | viability, T/C [2]: 91.5% | viability, T/C [3]: 84.1% | viability, T/C [4]: 78.7% | viability, T/C [25]: 72.4% | viability, T/C [26]: 63.3% | viability, T/C [5]: 99% | viability, T/C [6]: 88.2% | viability, T/C [7]: 80.8% | viability, T/C [8]: 84.6% | viability, T/C [27]: 72.3% | viability, T/C [28]: 62.6% | viability, T/C [9]: 93% | viability, T/C [10]: 95.1% | viability, T/C [11]: 90.3% | viability, T/C [12]: 72.6% | viability, T/C [29]: 78% | viability, T/C [30]: 55.8% | viability, T/C [13]: 112% | viability, T/C [14]: 92.3% | viability, T/C [15]: 93.3% | viability, T/C [16]: 76.5% | viability, T/C [31]: 76.6% | viability, T/C [32]: 58.1% | viability, T/C [17]: 101% | viability, T/C [18]: 99.2% | viability, T/C [19]: 93.6% | viability, T/C [20]: 82.4% | viability, T/C [33]: 68.3% | viability, T/C [34]: 60.7% | viability, T/C [21]: 111% | viability, T/C [22]: 114% | viability, T/C [23]: 89.1% | viability, T/C [24]: 84.7% | viability, T/C [35]: 81.8% | viability, T/C [36]: 58.5%
